Our source for the Drug uptake, inhibition and Activity values is ChEMBL document CHEMBL1153521, “A novel decoy that interrupts G93A-superoxide dismutase gain of interaction with malate dehydrogenase improves survival in an amyotrophic lateral sclerosis cell model” (J Med Chem, 2009).

Data set [1] in a line: Drug penetration in mouse NSC-34 cells at 1 uM after 24 hrs by fluorescence confocal microscopy. Particulars: nsc-34, 24 h. The class given is ADME, cell-based.
For data set [2], the system named is NSC-34. Put plainly: Inhibition of interaction of human SOD1 G93A mutant with YFP-tagged MDH1 transfected in mouse NSC-34 cells after 48 hrs by pull-down immunoprecipitation analysis. The class given is cell-based.
Data set [3] is described as follows: Increase in ATP level in mouse NSC-34 cells expressing human SOD1 G93A mutant at 1 uM after 48 hrs relative to cells expressing wild type human SOD1. Format: functional.
Data set [4] in a line: Protective effect against rotenone-induced toxicity in mouse NSC-34 cells expressing GFP-tagged human SOD1 G93A mutant assessed as increase in survival at 1 uM after 48 hrs by methylene blue assay relative to rotenone-treated cells expressing GFP-tagged wild type human SOD1. Format: functional.
The nature of data set [5]: Protective effect against 2 mg/ml glucose-induced toxicity in mouse NSC-34 cells expressing GFP-tagged human SOD1 G93A mutant assessed as increase in survival at 1 uM after 48 hrs by methylene blue assay relative to 2 mg/ml glucose-treated cells expressing GFP-tagged wild type human SOD1. Format: functional.
Data set [6] deals with NSC-34. Put plainly: Inhibition of interaction of CFP-tagged human SOD1 G93A mutant with YFP-tagged MDH1 transfected in mouse NSC-34 cells by FRET assay. Format: cell-based. The arrangement: scale not given: the % may be the effect or the level left.

Calls of active or inactive are those of the source. The rule behind the calls is not given here. Peptide text beside a SMILES is read from it. * marks the point of attachment. X1 = CN(C)c1ccc2c(-c3ccc(C(=O)*)cc3C(=O)O)c3ccc(=[N+](C)C)cc-3oc2c1

Regarding `CC(C)C[C@H](NC(=O)[C@H](CC(N)=O)NC(=O)c1ccc(-c2c3ccc(=[N+](C)C)cc-3oc3cc(N(C)C)ccc23)c(C(=O)O)c1)C(=O)N[C@@H](CO)C(=O)O`, in data set [1], the Drug uptake was determined as 100%. Further, the inhibition result in the data set on NSC-34 [2] is “inactive”.

On to `CC[C@H](C)[C@H](NC(=O)[C@H](Cc1ccccc1)NC(=O)[C@H](CCC(=O)O)NC(=O)CNC(=O)[C@H](CCCCN)NC(=O)[C@H](CC(C)C)NC(=O)[C@H](Cc1c[nH]c2ccccc12)NC(=O)[C@H](CO)NC(=O)c1ccc(-c2c3ccc(=[N+](C)C)cc-3oc3cc(N(C)C)ccc23)c(C(=O)O)c1)C(=O)N[C@H](C(=O)N[C@H](C(=O)N[C@H](C(=O)N[C@@H](CCC(N)=O)C(=O)N[C@@H](CCC(N)=O)C(=O)N[C@@H](CCCNC(=N)N)C(=O)NCC(=O)N[C@@H](C)C(=O)N[C@@H](C)C(=O)N[C@H](C(=O)N[C@H](C(=O)N[C@@H](CCCCN)C(=O)N[C@@H](C)C(=O)N[C@@H](CCCNC(=N)N)C(=O)N[C@@H](CCCCN)C(=O)O)[C@@H](C)CC)C(C)C)C(C)C)[C@@H](C)O)[C@@H](C)O` (X1-SWLKGEFITTVQQRGAAVIKARK-OH), for which the Drug uptake in data set [1] was determined as 100%. Besides, in the data set on NSC-34 [2], the inhibition result is “Active”. Besides, the Activity came to 90% in data set [3], 98% in data set [4] and 97% in data set [5].

In the case of H-GQIAYSLLYSIGNGS-OH, the outcome in the data set with NSC-34 [6] was inactive.

As for H-SWLKGEFITTVQQRGAAVIKARK-OH, the Activity in the data set with NSC-34 [6] worked out at 79%.
